# Experimental data published in US6342501B1, “Pyrrolo[2,3-d] pyrimidines as antiviral agents” (The Regents of the University of Michigan, priority 1994, dated 2002).
# Read-outs that look alike come from different tables or passages of the source.
# Legend:
# [1] = system: herpes simplex virus type 1 (HSV-1); assay: HSV-1 ELISA in BSC-1 cells; format: cell-based, KOS strain; settings: read-out: HSV-1
# Experimental: (§1) The routine growth and passage of KB and BSC-1 cells was performed in monolayer cultures using minimal essential medium (MEM) with either Hanks salts [MEM(H)] or Earle salts [MEM(E)] supplemented with 10% calf serum. The sodium bicarbonate concentration was varied to meet the buffering capacity required. Cultures of diploid human foreskin fibroblast (HFF) or MRC-5 cells were grown in medium consisting of MEM(E) with 10% fetal bovine serum. Cells were passaged at 1:2 to 1:10 dilutions according to conventional procedures by using 0.05% trypsin plus 0.02% EDTA in a HEPES buffered salt solution (HBS) [Shipman, C., Jr., Proc. Soc. […] HFF and MRC-5 cells were passaged only at 1:2 dilutions. The Towne strain, plaque-purified isolate Po, of HCMV was kindly provided by Dr. Mark Stinski, University of Iowa. The KOS strain of HSV-1 was used in most experiments and was provided by Dr. Sandra K. Weller, University of Conn.
# High titer HSV-1 stocks were prepared by infecting BSC cells at an m.o.i. of <0.1 as detailed previously [Turk, S. R., et al., Antimicrob.
# Ninety-six-well cluster dishes were planted with 10,000 BSC-1 cells per well in 200 μL per well of MEM(E) plus 10% calf serum. After overnight incubation at 37° C., selected drug concentrations in quadruplicate and HSV-1 at a concentration of 100 p.f.u./well were added. Following a 3-day incubation at 37° C., medium was removed, plates were blocked, rinsed, and horse radish peroxidase conjugated rabbit anti-HSV-1 antibody was added. Following removal of the antibody containing solution, plates were rinsed, and then developed by adding 150 μL per well of a solution of tetramethylbenzidine as substrate. The reaction was stopped with H2SO4 and absorbance was read at 450 and 570 nm. Drug effects were calculated as a percentage of the reduction in absorbance in the presence of each drug concentration compared to absorbance obtained with virus in the absence of drug.
# (§2) Dose-response relationships were constructed by linearly regressing the percent inhibition of parameters derived in the preceding sections against logarithm 10 drug concentrations. […] Samples containing positive controls (acyclovir for HSV-1 and ganciclovir for HCMV) were used in all assays.
# [2] = system: human foreskin fibroblasts (HFF cells); assay: Cytotoxicity in stationary HFF cells (microscopic inspection of plaque assay cells); format: cell-based; settings: read-out: HFF
# Experimental: (§3) Two different assays were used to explore cytotoxicity of selected compounds: (i) Cytotoxicity produced in stationary HFF cells was determined by microscopic inspection of cells used in plaque assays which were not affected by the virus [Turk, S. R., et al, Antimicrob.
# as §2
# KB cells = assay: Cytotoxicity: KB cell growth (crystal violet staining); format: cell-based; settings: Homo sapiens, read-out: KBgrv
# Experimental: as §3
# Briefly, 96-well cluster dishes were planted with KB cells at 3000-5000 cells per well. After overnight incubation at 37° C., test compound was added in quadruplicate at six to eight concentrations. Plates were incubated at 37° C for 48 hours in a CO2 incubator, rinsed, fixed with 95% ethanol, and stained with 0.1% crystal violet. Acidified ethanol was added and plates read at 570 nm in a spectrophotometer designed to read 96-well ELISA assay plates.
# as §2
# [3] = system: human cytomegalovirus (HCMV); assay: microbe, parasite or virus in culture; format: cell-based, Towne strain; settings: for IC50: Human betaherpesvirus 5, HFF, read-out: HCMV; for antiviral activity against HCMV (in words): comment on Table 1 data
# Experimental: as §1
# Stock HCMV was prepared by infecting HFF cells at a multiplicity of infection (m.o.i.) of <0.01 plaque-forming units (p.f.u.) per cell. Cell growth medium was changed every four days until cytopathology was evident in all cells (approximately 21 days). Supernatant fluids were retained as the virus stock.
# Virus titers were determined using monolayer cultures of HFF cells for HCMV and monolayer cultures of BSC-1 cells for HSV-1 as described earlier [Prichard, M. N., et al., J. Virol. […] Briefly, HFF or BSC-1 cells were planted as described above in 96-well cluster dishes and incubated overnight at 37. degree. C. in a humidified 3% C02 -97% air atmosphere. The next day cultures were inoculated with HCMV or HSV-1 and serially diluted 1:3 across the remaining eleven columns of the 96-well plate. Cultures were incubated at 37. degree. C. for 2 hr to permit virus adsorption and then virus inoculum was replaced with 0.2 ml of fresh medium. Cultures were incubated for seven days for HCMV, two or three days for HSV-1, the medium was removed, and the cell sheets were stained with 0.1% crystal violet in 20% methanol.
# HFF cells in 24-well cluster dishes were infected with approximately 100 p.f.u. of HCMV per cm^2 cell sheet using the procedures detailed above. Following virus adsorption, compounds dissolved in growth medium were added to duplicate wells in four to eight selected concentrations. After incubation at 37° C. for 7 to 10 days, cell sheets were fixed, stained with crystal violet and microscopic plaques enumerated as described above.
# After virus adsorption, inoculum was replaced with 0.2 mL of fresh medium containing test compounds. The first row of 12 wells was left undisturbed and served as virus controls. Each well in the second row received an additional 0.1 mL of medium with test compound at three times the desired final concentration. The contents of the 12 wells were mixed by repeated pipetting and then serially diluted 1:3 along the remaining wells. In this manner, six compounds could be tested in duplicate on a single plate with concentrations from […]. Plates were incubated at 37° C. for seven days, subjected to one cycle of freezing and thawing; aliquots from each of the eight wells of a given column were transferred to the first column of a fresh 96-well monolayer culture of HFF cells. Contents were mixed and serially diluted 1:3 across the remaining eleven columns of the secondary plate. Each column of the original primary plate was diluted across a separate plate in this manner. Cultures were incubated, plaques were enumerated, and titers calculated as described above.
# as §2
# HSV-1 = settings: prior studies; mechanism other than inhibition of DNA synthesis, early in replication cycle; cited from earlier work
# HCMV = settings: prior studies; mechanism other than inhibition of DNA synthesis, early in replication cycle; cited from earlier work
# [4] = Human alphaherpesvirus 1, BSC-1, 72 h
# [5] = Human alphaherpesvirus 1, 72 h, Table 1, fifty-percent inhibitory concentration, ELISA, BSC-1 cells, 3-day incubation
# [6] = Table 1, cytotoxicity, stationary HFF cells, visual
# [7] = Table 1, cytotoxicity, KB cell growth, 48 hours
Structure (SMILES),melting point,"IC50 [1, 4] [µM]",IC50 ([2]; HFF) [µM],"IC50 (KB cells; KB, 48 h) [µM]",IC50 [3] [µM],antiviral activity against HCMV (in words) [3],"IC50 [1, 5] [µM]","IC50 [2, 6] [µM]",IC50 (KB cells; [7]) [µM],inhibition of HSV-1 viral replication (in words) (HSV-1),inhibition of HCMV viral replication (in words) (HCMV)
"N#Cn1c(Br)c(CCc2ccc(Cl)cc2)c2ncnc(N)c21 [Compound 6f, 4-Amino-6-Bromo-5-cyano-7-(4-chlorophenethyl)pyrrolo[2,3]pyrimidine]",280 °C (dec.),,,,,,,,,,
"NC(=O)c1cn(Cc2ccc(F)cc2)c2ncnc(N)c12 [Compound 1419, 4-amino-7-(4-fluorobenzyl)-pyrrolo[2,3-d]pyrimidine-5-carboxamide]",,16,100,50,4.2,good to excellent antiviral activity,,,,,
"CC(C)(C)c1ccc(Cn2cc(C(N)=O)c3c(N)ncnc32)cc1 [Compound 845, 4-amino-7-(4-t-butylbenzyl)-pyrrolo[2,3-d]pyrimidine-5-carboxamide]",,50,100,1,28,,,,,,
"N#Cc1c(Br)n(Cc2ccc(Cl)c(Cl)c2)c2ncnc(N)c12 [Compound 1462, 4-amino-6-bromo-7-(3,4-dichlorobenzyl)-pyrrolo[2,3-d]pyrimidine-5-carbonitrile]",,,,,> 100,,> 100,> 100,> 100,,
"N#Cc1c(N)n(Cc2ccc(Cl)cc2)c2ncnc(N)c12 [Compound 1356, 4,6-diamino-7-(4-chlorobenzyl)-pyrrolo[2,3-d]pyrimidine-5-carbonitrile]",,,,,0.2,good to excellent antiviral activity,17,46,76,,
"NC(=O)c1c(Br)n(CCc2ccccc2)c2ncnc(N)c12 [Compound 1409, 4-amino-6-bromo-7-(2-phenyl)ethyl-pyrrolo[2,3-d]pyrimidine-5-carboxamide]",,,,,100,lost,> 100,> 100,> 100,,
"N#Cc1c(Br)n(Cc2cccc([N+](=O)[O-])c2)c2ncnc(N)c12 [Compound 1374, 4-amino-6-bromo-7-(3-nitrobenzyl)-pyrrolo[2,3-d]pyrimidine-5-carbonitrile]",,,,,> 10,,> 100,> 10,> 100,,
"N#Cc1cn(CCc2ccccc2)c2ncnc(N)c12 [Compound 1368, 4-amino-7-(2-phenyl)ethyl-pyrrolo[2,3-d]pyrimidine-5-carbonitrile]",,,,,0.7,excellent activity,10,32,> 100,,
"COCCOCn1cc(C(N)=S)c2c(N)ncnc21 [compound 5b, 4-amino-7-[(2-methoxyethoxy)methyl]pyrrolo[2,3-d]pyrimidine-5-thiocarboxamide]",,,,,,,,,,inhibited,inhibited
"CC(c1ccccc1)n1cc(C(N)=O)c2c(N)ncnc21 (centres unmarked) [Compound 1428, 4-amino-7-((2-phenyl)-eth-2-yl)-pyrrolo[2,3-d]pyrimidine-5-carboxamide]",,50,45,20,38,good to excellent antiviral activity,,,,,
"Cc1cccc(Cn2cc(C(N)=O)c3c(N)ncnc32)c1 [Compound 826, 4-amino-7-(3-methylbenzyl)-pyrrolo[2,3-d]pyrimidine-5-carboxamide]",,> 100,≥ 222,≥ 222,≥ 222,,,,,,
